{"source": "patent EP0250134B1", "about": "“Method for combating swine dysentery” (IMCERA Group Inc., priority 1986, dated 1987)", "key": {"[1]": {"test_system": "Treponema hyodysenteriae induced swine dysentery", "test": "Treponema hyodysenteriae induced swine dysentery, lysocellin in feed, 51-day trial, challenge on study day 22", "format": "in vivo", "details": "for Daily feed / Daily gain / Feed/Gain: infected pigs", "description": "One hundred twenty (120) cross-bred barrows and gilts were used in a randomized complete blocks design to evaluate the effect of lysocellin on Treponema hyodysenteriae induced swine dysentery. The swine were divided into 4 groups: (1) non-infected, non-medicated controls, (2) infected non-medicated controls, (3) infected, medicated at 98.43 grams lysocellin/t (100 g/T), and (4) infected, medicated at 196.85 grams lysocellin/t (200 g/T). All were observed through a 51-day trial period. Swine in groups (2)-(4) were challenged with Treponema hyodysenteriae on study day 22 and the post-challenge period data were analyzed for significant differences. A description of the experimental design is summarized as follows:\nComparisons were made on treatment 1 vs. treatments 3 and 4, treatment 2 vs. treatment 3 and 4, and treatment 3 vs. treatment 4. The following observations were made based upon data analyzed: postchallenge performance of swine with respect to daily gain and daily feed gain, number of pigs per pen expressing clinical signs of dysentery during the postchallenge period, number of pig days per pen with clinical signs of dysentery during the postchallenge period, and number of pig days per pen with specified fecal score.\nReferring to table 3 and table 4, clinical signs of dysentery observed during the postchallenge period are presented as treatment means of: number of pigs per pen expressing the sign and number of pig days the sign was observed within a pen. The value \"pig days\" was based on 28 days/pig surviving to the end of the trial or number of days a pig survived during the postchallenge period (for example, 5 pigs/pen on trial for 28 days equals 140 pig days). Removal of pigs from a pen during the trial was taken into account in these calculations."}, "Treponema hyodysenteriae": {"test_system": "Treponema hyodysenteriae", "test": "in vitro Streak Plate Test Method (inhibition endpoint / MIC on trypticase soy blood agar)", "format": "cell-based", "details": "summary of Table 1", "description": "The following test procedure was used to evaluate the anti-Treponema hyodysenteriae activity of the compounds in the present invention. This test procedure establishes the lowest concentration of the compounds that will inhibit the growth on cultures of Treponema hyodysenteriae in an in vitro Streak Plate Test Method.\nProcedure: Stock solutions containing 10,000, 1,000, 100, 10, 1.0, and 0.1, micrograms per milliliters of the compound to be tested were prepared. The final dilutions to establish the test concentrations in the media were made by placing the correct volume of stock solution in a petri dish, adding the media (trypticase soy blood agar), and mixing before the media solidified. After the media solidified, the test cultures of Treponema hyodysenteriae were streaked onto the surface of the agar. Petri dishes containing media without test samples were also set up as culture controls and are inoculated in the same manner. All inoculated plates were incubated at 39°C in anaerobic jars for 48 hrs. Inhibition endpoints were then determined by observing the test plates for growth or no growth of the test cultures at the various concentrations of the compounds. If the culture growth occured at one concentration but not at the next higher concentration, the inhibitory endpoint or MIC (Minimum Inhibitory Concentration) was considered the higher concentration.\nReferring to Table 1, the culture numbers refer to field isolate strains of Treponema hyodysenteriae. These field isolates were isolated in Illinois, Iowa, and Nebraska. The numbers giving the results in the Table are read as follows: the first number for each isolate and compound tested corresponds to the concentration in micrograms per milliliter where growth occurred and the second number corresponds to the concentration in micrograms per milliliter where no growth occurred."}, "[2]": {"details": "196.85 g/t (200 g/T) lysocellin, mean (lower, higher 95% confidence limits), 5 pigs/pen for 28 days = 140 pig days"}, "[3]": {"details": "postchallenge period 0-7 days, 98.43 g/t (100 g/T) lysocellin"}, "[4]": {"details": "postchallenge period 0-7 days, 196.85 g/t (200 g/T) lysocellin"}, "[5]": {"details": "postchallenge period 0-14 days, 98.43 g/t (100 g/T) lysocellin"}, "[6]": {"details": "postchallenge period 0-14 days, 196.85 g/t (200 g/T) lysocellin"}, "[7]": {"details": "postchallenge period 0-21 days, 98.43 g/t (100 g/T) lysocellin"}, "[8]": {"details": "postchallenge period 0-21 days, 196.85 g/t (200 g/T) lysocellin"}, "[9]": {"details": "postchallenge period 0-28 days, 98.43 g/t (100 g/T) lysocellin"}, "[10]": {"details": "postchallenge period 0-28 days, 196.85 g/t (200 g/T) lysocellin"}}, "data": [{"substance": "lysocellin", "values": [{"measurement": "Number of Pig Days per Pen with Clinical Signs of Dysentery During the Postchallenge Period: Gauntness", "setting": "[1]; [2]", "result": "11.17 (5.73,18.30)"}, {"measurement": "Number of Pig Days per Pen with Clinical Signs of Dysentery During the Postchallenge Period: Lethargic", "setting": "[1]; [2]", "result": "1.82 (0.07,4.74)"}, {"measurement": "Number of Pig Days per Pen with Clinical Signs of Dysentery During the Postchallenge Period: Reddened skin", "setting": "[1]; [2]", "result": "1.29 (-0.02,3.41)"}, {"measurement": "Number of Pig Days per Pen with Clinical Signs of Dysentery During the Postchallenge Period: Rough hair coat", "setting": "[1]; [2]", "result": "9.55 (2.33,21.19)"}, {"measurement": "Number of Pig Days per Pen with Clinical Signs of Dysentery During the Postchallenge Period: Weak", "setting": "[1]; [2]", "result": "0.13 (-0.35,0.94)"}, {"measurement": "mortality", "setting": "[1]; infected pigs fed lysocellin", "result": "prevented mortality"}, {"measurement": "anorexia (clinical sign)", "setting": "[1]; infected pigs receiving either level of lysocellin, postchallenge period", "result": "No pigs receiving lysocellin appeared anorexic"}, {"measurement": "feed efficiency", "setting": "[1]; pigs receiving lysocellin (either level) vs infected control pigs", "result": "superior (P<.05)"}, {"measurement": "cumulative average daily gain", "setting": "[1]; pigs receiving lysocellin (either level) vs infected nonmedicated pigs, each period (7, 14, 21 and 28 days)", "result": "improved (P<.05) over that of nonmedicated pigs"}, {"measurement": "fecal condition (number of pen pig days with a specified fecal condition)", "setting": "[1]; pigs receiving lysocellin vs infected non-medicated control pigs, postchallenge period (Table 5, not given)", "result": "Infected non-medicated control pigs had significantly fewer (P<.05) days of normal feces and more (P<.05) days of water or bloody diarrhea than pigs receiving lysocellin"}, {"measurement": "Daily feed", "setting": "[1]; [3]", "result": 1.06, "unit": "kg/day"}, {"measurement": "Daily gain", "setting": "[1]; [3]", "result": 0.35, "unit": "kg/day"}, {"measurement": "Feed/Gain", "setting": "[1]; [3]", "result": 3.21}, {"measurement": "Daily feed", "setting": "[1]; [4]", "result": 0.94, "unit": "kg/day"}, {"measurement": "Daily gain", "setting": "[1]; [4]", "result": 0.41, "unit": "kg/day"}, {"measurement": "Feed/Gain", "setting": "[1]; [4]", "result": 2.30}, {"measurement": "Daily feed", "setting": "[1]; [5]", "result": 0.90, "unit": "kg/day"}, {"measurement": "Daily gain", "setting": "[1]; [5]", "result": 0.22, "unit": "kg/day"}, {"measurement": "Feed/Gain", "setting": "[1]; [5]", "result": 4.61}, {"measurement": "Daily feed", "setting": "[1]; [6]", "result": 1.03, "unit": "kg/day"}, {"measurement": "Daily gain", "setting": "[1]; [6]", "result": 0.35, "unit": "kg/day"}, {"measurement": "Feed/Gain", "setting": "[1]; [6]", "result": 2.99}, {"measurement": "Daily feed", "setting": "[1]; [7]", "result": 0.89, "unit": "kg/day"}, {"measurement": "Daily gain", "setting": "[1]; [7]", "result": 0.28, "unit": "kg/day"}, {"measurement": "Feed/Gain", "setting": "[1]; [7]", "result": 3.38}, {"measurement": "Daily feed", "setting": "[1]; [8]", "result": 1.07, "unit": "kg/day"}, {"measurement": "Daily gain", "setting": "[1]; [8]", "result": 0.42, "unit": "kg/day"}, {"measurement": "Feed/Gain", "setting": "[1]; [8]", "result": 2.55}, {"measurement": "Daily feed", "setting": "[1]; [9]", "result": 0.99, "unit": "kg/day"}, {"measurement": "Daily gain", "setting": "[1]; [9]", "result": 0.33, "unit": "kg/day"}, {"measurement": "Feed/Gain", "setting": "[1]; [9]", "result": 3.01}, {"measurement": "Daily feed", "setting": "[1]; [10]", "result": 1.15, "unit": "kg/day"}, {"measurement": "Daily gain", "setting": "[1]; [10]", "result": 0.45, "unit": "kg/day"}, {"measurement": "Feed/Gain", "setting": "[1]; [10]", "result": 2.55}, {"measurement": "activity compared to the controls", "setting": "Treponema hyodysenteriae", "result": "comparable activity"}]}]}
